Results published in ChEMBL document CHEMBL6153077, “Design, synthesis, and anti-liver fibrosis activity of novel non-steroidal vitamin D receptor agonists based on open-ring steroid scaffold” (Eur J Med Chem, 2025).
Calls of active or inactive are those of the source. The rule behind the calls is not given here.

Columns and labels:
[1] = biological target: T1, Vitamin D3 receptor (Homo sapiens) (UniProt P11473); test: Binding affinity to full-length VDR (unknown origin) at 1 uM by fluorescence polarization assay relative to control
T1 sequence (whole entry): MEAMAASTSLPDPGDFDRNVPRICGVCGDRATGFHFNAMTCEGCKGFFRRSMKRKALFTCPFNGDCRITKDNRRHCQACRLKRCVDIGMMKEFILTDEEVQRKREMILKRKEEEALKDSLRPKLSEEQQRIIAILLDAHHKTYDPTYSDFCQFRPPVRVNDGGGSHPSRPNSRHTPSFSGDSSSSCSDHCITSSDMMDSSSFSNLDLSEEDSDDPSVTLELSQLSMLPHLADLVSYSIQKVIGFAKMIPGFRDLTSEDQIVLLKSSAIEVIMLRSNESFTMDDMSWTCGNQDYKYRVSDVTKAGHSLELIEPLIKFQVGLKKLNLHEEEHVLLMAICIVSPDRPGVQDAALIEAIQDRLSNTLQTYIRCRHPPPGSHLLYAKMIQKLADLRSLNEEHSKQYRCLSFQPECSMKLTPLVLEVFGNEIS

[2] = biological target: T1, Vitamin D3 receptor (Homo sapiens); test: Agonist activity at VDR in human LX2 cells assessed as increase in CYP24A1 level at 0.5 uM by qRT-PCR analysis; type: cell-based; conditions: filed as agonist
[3] = system: LX-2; test: Inhibition of HSC activation in TGF-beta1-treated human LX2 cells assessed as decrease in ACTA2 mRNA level at 0.5 uM incubated for 24 hrs by qPCR analysis; type: functional, cell-based
[4] = system: LX-2; test: Inhibition of HSC activation in TGF-beta1-treated human LX2 cells assessed as decrease in COL1A1 mRNA level at 0.5 uM incubated for 24 hrs by qPCR analysis; type: functional, cell-based
[5] = system: LX-2; test: Inhibition of HSC activation in TGF-beta1-treated human LX2 cells assessed as decrease in alpha-SMA level at 0.5 uM incubated for 24 hrs by Western blot analysis; type: functional, cell-based
[6] = system: LX-2; test: Inhibition of HSC activation in TGF-beta1-treated human LX2 cells assessed as decrease in collagen-I level at 0.5 uM incubated for 24 hrs by Western blot analysis; type: functional, cell-based

Row | SMILES | Activity ([1]; filed as agonist) [%] | further results
1 | CCCCC(OC(=O)C1=C[C@@H](O)[C@@H](O)[C@H](O)C1)c1cccc(OCCCC(C)(C)O)c1 (stereo partly drawn) | 50 | –
2 | CC(OC(=O)C1=C[C@@H](O)[C@@H](O)[C@H](O)C1)c1cccc(OCCCC(C)(C)O)c1 (stereo partly drawn) | 85 | –
3 | CCCC(OC(=O)C1=C[C@@H](O)[C@@H](O)[C@H](O)C1)c1cccc(OCCCC(C)(C)O)c1 (stereo partly drawn) | 77 | inhibition [3]: Active; inhibition [4]: Active; inhibition [5]: Active; inhibition [6]: Active
4 | CC(C)(O)CCOc1cccc2c1CCCC2OC(=O)C1=C[C@@H](O)[C@@H](O)[C@H](O)C1 (stereo partly drawn) | 45 | –
5 | O=C(COc1ccc(/C=C/C2=C[C@@H](O)[C@@H](O)[C@H](O)C2)c2c1CCCC2)N1CCOCC1 | 45 | –
6 | Cc1cc(C(C)(C)O)ccc1-c1ccc(COC(=O)C2=C[C@@H](O)[C@@H](O)[C@H](O)C2)s1 | 71 | –
7 | CCC(O)(CC)CCCn1ccc2c(/C=C/C3=C[C@@H](O)[C@@H](O)[C@H](O)C3)cccc21 | 64 | Activity [2]: Active
8 | CC(C)(O)CCCOc1cccc2c1CCCC2OC(=O)C1=C[C@@H](O)[C@@H](O)[C@H](O)C1 (stereo partly drawn) | 69 | –
9 | CC(C)(C)C(O)COc1ccc(/C=C/C2=C[C@@H](O)[C@@H](O)[C@H](O)C2)c2c1CCCC2 (stereo partly drawn) | 50 | –
10 | CC(C)(O)CCCOc1ccc(C#CC2=C[C@@H](O)[C@@H](O)[C@H](O)C2)c2c1CCCC2 | – | Activity [1]: 15%

More lines, main results first:

Row | Activity ([1]; filed as agonist) [%] | SMILES | further results
11 | 51 | C=CCC(O)(CC=C)CCCOc1cccc2c1CCCC2OC(=O)C1=C[C@@H](O)[C@@H](O)[C@H](O)C1 (stereo partly drawn) | –
12 | 61 | CCC(O)(CC)COc1ccc(/C=C/C2=C[C@@H](O)[C@@H](O)[C@H](O)C2)c2c1CCCC2 | –
13 | 56 | CC(C)(O)CCOc1ccc(C#CC2=C[C@@H](O)[C@@H](O)[C@H](O)C2)c2c1CCCC2 | –
14 | 56 | CCN(CC)C(=O)COc1ccc(/C=C/C2=C[C@@H](O)[C@@H](O)[C@H](O)C2)c2c1CCCC2 | –
15 | 72 | O=C(COc1ccc(/C=C/C2=C[C@@H](O)[C@@H](O)[C@H](O)C2)c2c1CCCC2)c1ccccc1 | Activity [2]: Active; inhibition [3]: Active; inhibition [4]: Active
16 | 49 | CCC(O)(CC)CCCCOc1ccc(C#CC2=C[C@@H](O)[C@@H](O)[C@H](O)C2)c2c1CCCC2 | –
17 | 64 | CCN(CC)CCCOc1cccc2c1CCCC2OC(=O)C1=C[C@@H](O)[C@@H](O)[C@H](O)C1 (stereo partly drawn) | –
18 | 55 | CC(C)(O)CCOc1ccc(/C=C/C2=C[C@@H](O)[C@@H](O)[C@H](O)C2)c2c1CCCC2 | –
19 | 88 | CC(C)(C)c1ccc(C(=O)COc2ccc(/C=C/C3=C[C@@H](O)[C@@H](O)[C@H](O)C3)c3c2CCCC3)cc1 | –
20 | 68 | CC(C)(C)C(=O)COc1ccc(/C=C/C2=C[C@@H](O)[C@@H](O)[C@H](O)C2)c2c1CCCC2 | –
